± gives the expanded uncertainty stated by the source.
Key:
[1] = Molar enthalpy of transition or fusion; conditions: Crystal; DSC
[2] = refractive index (Na D-line) (dimensionless); conditions: 293.1 K; 101.33 kPa; Liquid; Standard Abbe refractometry
[3] = for mass density: 293.1 K, 101.33 kPa, Liquid, Pycnometric method; for Normal melting temperature: Crystal; for Normal melting temperature / Glass transition temperature: DTA

CCCCCCCC[n+]1cc(C)cc(C)c1.N#C[S-] [3,5-dimethyl-1-octylpyridinium thiocyanate]
Molar enthalpy of transition or fusion [1]: 1.53 ± 0.086 kcal/mol
refractive index [2]: 1.5415 ± 0.0016
mass density [3]: 1000 ± 20 kg/m3
Normal melting temperature [3]: -38.0 ± 2 °C
Glass transition temperature [3]: -74.0 ± 2 °C

CCCCCCCC[n+]1cc(C)cc(C)c1.O=S(=O)([N-]S(=O)(=O)C(F)(F)F)C(F)(F)F
refractive index [2]: 1.4526 ± 0.01
mass density [3]: 1280 ± 20 kg/m3
Glass transition temperature [3]: -78.0 ± 2 °C

CCCCCCCC[n+]1cccc(C)c1C.O=S(=O)([O-])C(F)(F)F
refractive index [2]: 1.4725 ± 0.0016
mass density [3]: 1180 ± 20 kg/m3
Glass transition temperature [3]: -63.0 ± 2 °C

CCCC[n+]1cc(C)cc(C)c1.N#C[N-]C#N [1-butyl-3,5-dimethylpyridinium dicyanamide]
Molar enthalpy of transition or fusion [1]: 0.92 ± 0.0765 kcal/mol
refractive index [2]: 1.5278 ± 0.0016
Normal melting temperature [3]: -1.0 ± 2 °C
Glass transition temperature [3]: -80.0 ± 2 °C

CCCC[n+]1cccc(C)c1C.O=S(=O)([O-])C(F)(F)F
Molar enthalpy of transition or fusion [1]: 4.03 ± 0.139 kcal/mol
refractive index [2]: 1.4748 ± 0.0016
mass density [3]: 1370 ± 20 kg/m3
Normal melting temperature [3]: 17.0 ± 2 °C
Glass transition temperature [3]: -69.0 ± 2 °C

CCCCCCCC[n+]1cc(C)cc(C)c1C.O=S(=O)([O-])C(F)(F)F
Glass transition temperature [3]: -56.0 ± 2 °C

CCCCCCCC[n+]1cc(C)cc(C)c1.F[B-](F)(F)F [3,5-dimethyl-1-octylpyridinium tetrafluoroborate]
Molar enthalpy of transition or fusion [1]: 6.71 ± 0.201 kcal/mol
Normal melting temperature [3]: 56.0 ± 2 °C

CCCC[n+]1cc(C)cc(C)c1.N#C[S-] [1-butyl-3,5-dimethylpyridinium thiocyanate]
Molar enthalpy of transition or fusion [1]: 3.83 ± 0.134 kcal/mol
Normal melting temperature [3]: 13.0 ± 2 °C
Glass transition temperature [3]: -57.0 ± 2 °C

CCCC[n+]1cc(C)cc(C)c1.O=S(=O)([N-]S(=O)(=O)C(F)(F)F)C(F)(F)F
refractive index [2]: 1.4559 ± 0.0016
mass density [3]: 1390 ± 20 kg/m3
Glass transition temperature [3]: -73.0 ± 2 °C

CCCCCCCC[n+]1cccc(C)c1C.N#C[S-] [2,3-dimethyl-1-octylpyridinium thiocyanate]
refractive index [2]: 1.5489 ± 0.0016
mass density [3]: 1020 ± 20 kg/m3
Glass transition temperature [3]: -65.0 ± 2 °C

CCCC[n+]1cc(C)cc(C)c1.O=S(=O)([O-])C(F)(F)F
Molar enthalpy of transition or fusion [1]: 6.81 ± 0.203 kcal/mol
mass density [3]: 1390 ± 20 kg/m3
Normal melting temperature [3]: 91.0 ± 2 °C

CCCC[n+]1cc(CC)ccc1C.O=S(=O)([N-]S(=O)(=O)C(F)(F)F)C(F)(F)F
refractive index [2]: 1.4552 ± 0.0016
mass density [3]: 1370 ± 20 kg/m3
Glass transition temperature [3]: -81.0 ± 2 °C

CCCC[n+]1cc(C)cc(C)c1C.O=S(=O)([O-])C(F)(F)F
Molar enthalpy of transition or fusion [1]: 5.01 ± 0.16 kcal/mol
Normal melting temperature [3]: 74.0 ± 2 °C

CCCCCCCC[n+]1cc(C)cc(C)c1.N#C[N-]C#N [3,5-dimethyl-1-octylpyridinium dicyanamide]
refractive index [2]: 1.5196 ± 0.0016
mass density [3]: 1000 ± 20 kg/m3
Glass transition temperature [3]: -78.0 ± 2 °C

CCCCCCCC[n+]1cc(C)cc(C)c1.O=S(=O)([O-])C(F)(F)F
Molar enthalpy of transition or fusion [1]: 5.93 ± 0.182 kcal/mol
Normal melting temperature [3]: 76.0 ± 2 °C

CCCC[n+]1cccc(C)c1C.N#C[N-]C#N [1-butyl-2,3-dimethylpyridinium dicyanamide]
refractive index [2]: 1.5403 ± 0.0016
Glass transition temperature [3]: -72.0 ± 2 °C

CCCCCCCC[n+]1cc(CC)ccc1C.N#C[N-]C#N [5-ethyl-2-methyl-1-octylpyridinium dicyanamide]
Normal melting temperature [3]: 53.0 ± 2 °C
Glass transition temperature [3]: -59.0 ± 2 °C

CCCCCCCC[n+]1cc(CC)ccc1C.[I-] [5-ethyl-2-methyl-1-octylpyridinium iodide]
Molar enthalpy of transition or fusion [1]: 7.38 ± 0.217 kcal/mol
Normal melting temperature [3]: 87.0 ± 2 °C
Glass transition temperature [3]: -33.0 ± 2 °C

CCCCCCCC[n+]1cccc(C)c1C.O=S(=O)([N-]S(=O)(=O)C(F)(F)F)C(F)(F)F
refractive index [2]: 1.4571 ± 0.01
mass density [3]: 1290 ± 20 kg/m3
Glass transition temperature [3]: -70.0 ± 2 °C

CCCC[n+]1cc(C)cc(C)c1C.O=S(=O)([N-]S(=O)(=O)C(F)(F)F)C(F)(F)F
refractive index [2]: 1.4583 ± 0.0016
mass density [3]: 1370 ± 20 kg/m3
Glass transition temperature [3]: -74.0 ± 2 °C

CCCCCCCC[n+]1cc(CC)ccc1C.O=S(=O)([N-]S(=O)(=O)C(F)(F)F)C(F)(F)F
mass density [3]: 1280 ± 20 kg/m3
Glass transition temperature [3]: -78.0 ± 2 °C

CCCCCCCC[n+]1cc(C)cc(C)c1.[I-] [3,5-dimethyl-1-octylpyridinium iodide]
Molar enthalpy of transition or fusion [1]: 6.08 ± 0.186 kcal/mol
Normal melting temperature [3]: 82.0 ± 2 °C
Glass transition temperature [3]: -41.0 ± 2 °C

CCCC[n+]1cccc(C)c1C.O=S(=O)([N-]S(=O)(=O)C(F)(F)F)C(F)(F)F
refractive index [2]: 1.4497 ± 0.0016
mass density [3]: 1370 ± 20 kg/m3
Glass transition temperature [3]: -81.0 ± 2 °C

CCCCCCCC[n+]1cc(C)cc(C)c1C.[I-] [2,3,5-trimethyl-1-octylpyridinium iodide]
refractive index [2]: 1.5776 ± 0.0016
Glass transition temperature [3]: -31.0 ± 2 °C

CCCCCCCC[n+]1cc(C)cc(C)c1C.O=S(=O)([N-]S(=O)(=O)C(F)(F)F)C(F)(F)F
refractive index [2]: 1.4617 ± 0.0016
mass density [3]: 1280 ± 20 kg/m3
Glass transition temperature [3]: -72.0 ± 2 °C

CCCCCCCC[n+]1cc(C)cc(C)c1C.N#C[S-] [2,3,5-trimethyl-1-octylpyridinium thiocyanate]
Molar enthalpy of transition or fusion [1]: 3.5 ± 0.127 kcal/mol
Normal melting temperature [3]: 20.0 ± 2 °C
Glass transition temperature [3]: -58.0 ± 2 °C

— the NIST ThermoML archive (doi:10.1021/je9009283)
